Test system: cGVHD symptom burden
Assay: Example 1: Lee Symptom Scale (LSS) score
Assay type: in vivo, human
Description: Lee Symptom Scale (LSS) summary score measures the effect on patients' functioning and well-being. The Lee Symptom Scale is a 30-item scale developed to measure the symptoms of cGVHD and is described in Lec S J, Cook E F, Soiffer R, Antin J H. Development and validation of a scale to measure symptoms of chronic graft-versushost disease. Biol Blood Marrow Transplant 2002; 8:444-452.
All responses were assessed by the investigators.
Change From Baseline in Overall Score on Lee cGvHD Symptom Scale at Specified Time Points. Lee cGVHD symptom scale, a patient-reported symptom scale used to measure symptom burden and has 7 subscales (Skin, Eyes and Mouth, Breathing, Eating and Digestion, Muscles and Joints, Energy, and Mental and Emotional) with ratings as follows: 0—Not at all, 1—Slightly, 2—Moderately, 3—Quite a bit, 4—Extremely, with lower values representing better outcome. Score for each subscale was normalized to a score ranged from 0 to 100, where higher score=worse symptoms. An overall score was calculated as average of these 7 subscales. EOT visit was performed within 3 days after the participant's last dose of study drug. Baseline value was defined as valid and last non-missing value obtained within 28 days prior to participant receiving first study medication. […] Analysis was performed on mITT population. Here, ‘number analyzed’=participants with available data for each specified category. Here, ‘0’ in the number analyzed field signifies that none of the participants were available for the analysis at the specified time points.

## CC(C)NC(=O)COc1cccc(-c2nc(Nc3ccc4[nH]ncc4c3)c3ccccc3n2)c1 [Belumosudil, 2-{3-[4-(1H-indazol-5-ylamino)-2-quinazolinyl]phenoxy}-N-(propan-2-yl) acetamide]
Cohort 2: 200 mg BID, Cycle 9, Day 1
  Change From Baseline in Overall Score on Lee cGvHD Symptom Scale, Mean (Standard Deviation): −4.2 (5.5) score on a scale
Cohort 2: 200 mg BID, Cycle 10, Day 1
  Change From Baseline in Overall Score on Lee cGvHD Symptom Scale, Mean (Standard Deviation): −2.7 (6.1) score on a scale
Cohort 2: 200 mg BID, Cycle 11, Day 1
  Change From Baseline in Overall Score on Lee cGvHD Symptom Scale, Mean (Standard Deviation): −5.5 (6.0) score on a scale
Cohort 2: 200 mg BID, Cycle 12, Day 1
  Change From Baseline in Overall Score on Lee cGvHD Symptom Scale, Mean (Standard Deviation): −7.6 (7.7) score on a scale
Cohort 2: 200 mg BID, Cycle 13, Day 1
  Change From Baseline in Overall Score on Lee cGvHD Symptom Scale, Mean (Standard Deviation): −5.9 (8.8) score on a scale
Cohort 2: 200 mg BID, Cycle 14, Day 1
  Change From Baseline in Overall Score on Lee cGvHD Symptom Scale, Mean (Standard Deviation): −5.0 (7.3) score on a scale
Cohort 2: 200 mg BID, Cycle 15, Day 1
  Change From Baseline in Overall Score on Lee cGvHD Symptom Scale, Mean (Standard Deviation): −6.8 (7.0) score on a scale
Cohort 2: 200 mg BID, Cycle 16, Day 1
  Change From Baseline in Overall Score on Lee cGvHD Symptom Scale, Mean (Standard Deviation): −6.9 (7.6) score on a scale
Cohort 2: 200 mg BID, Cycle 27, Day 1
  Change From Baseline in Overall Score on Lee cGvHD Symptom Scale, Mean (Standard Deviation): −13.2 (6.6) score on a scale
Cohort 2: 200 mg BID, Cycle 29, Day 1
  Change From Baseline in Overall Score on Lee cGvHD Symptom Scale, Mean (Standard Deviation): −11.0 (7.3) score on a scale
Cohort 2: 200 mg BID, Cycle 31, Day 1
  Change From Baseline in Overall Score on Lee cGvHD Symptom Scale, Mean (Standard Deviation): −15.6 (4.3) score on a scale
Cohort 2: 200 mg BID, Cycle 33, Day 1
  Change From Baseline in Overall Score on Lee cGvHD Symptom Scale, Mean (Standard Deviation): −13.5 (9.0) score on a scale
Cohort 2: 200 mg BID, Cycle 35, Day 1
  Change From Baseline in Overall Score on Lee cGvHD Symptom Scale, Mean (Standard Deviation): −11.0 (12.4) score on a scale
Cohort 2: 200 mg BID, Cycle 37, Day 1
  Change From Baseline in Overall Score on Lee cGvHD Symptom Scale, Mean (Standard Deviation): −13.6 (8.1) score on a scale
Cohort 2: 200 mg BID, Cycle 39, Day 1
  Change From Baseline in Overall Score on Lee cGvHD Symptom Scale, Mean (Standard Deviation): −14.3 (8.5) score on a scale
Cohort 2: 200 mg BID, Cycle 41, Day 1
  Change From Baseline in Overall Score on Lee cGvHD Symptom Scale, Mean (Standard Deviation): −19.3 (—) score on a scale
Cohort 2: 200 mg BID, Cycle 43, Day 1
  Change From Baseline in Overall Score on Lee cGvHD Symptom Scale, Mean (Standard Deviation): −19.9 (—) score on a scale
Cohort 2: 200 mg BID, Cycle 47, Day 1
  Change From Baseline in Overall Score on Lee cGvHD Symptom Scale, Mean (Standard Deviation): −16.8 (—) score on a scale
Cohort 2: 200 mg BID, Cycle 49, Day 1
  Change From Baseline in Overall Score on Lee cGvHD Symptom Scale, Mean (Standard Deviation): −15.4 (—) score on a scale
Cohort 2: 200 mg BID, EOT
  Change From Baseline in Overall Score on Lee cGvHD Symptom Scale, Mean (Standard Deviation): −2.4 (10.9) score on a scale
Cohort 3 400 mg QD
  LSS improvement, nonresponder, n/N: 2/8
  LSS improvement, responder, n/N: 9/13
Cohort 3: 400 mg QD, Cycle 2, Day 1
  Change From Baseline in Overall Score on Lee cGvHD Symptom Scale, Mean (Standard Deviation): −5.2 (6.3) score on a scale
Cohort 3: 400 mg QD, Cycle 3, Day 1
  Change From Baseline in Overall Score on Lee cGvHD Symptom Scale, Mean (Standard Deviation): −4.3 (8.2) score on a scale
Cohort 3: 400 mg QD, Cycle 4, Day 1
  Change From Baseline in Overall Score on Lee cGvHD Symptom Scale, Mean (Standard Deviation): −2.7 (8.2) score on a scale
Cohort 3: 400 mg QD, Cycle 5, Day 1
  Change From Baseline in Overall Score on Lee cGvHD Symptom Scale, Mean (Standard Deviation): −0.5 (10.8) score on a scale
Cohort 3: 400 mg QD, Cycle 6, Day 1
  Change From Baseline in Overall Score on Lee cGvHD Symptom Scale, Mean (Standard Deviation): −0.8 (9.3) score on a scale
Cohort 3: 400 mg QD, Cycle 7, Day 1
  Change From Baseline in Overall Score on Lee cGvHD Symptom Scale, Mean (Standard Deviation): −2.0 (12.3) score on a scale
Cohort 3: 400 mg QD, Cycle 8, Day 1
  Change From Baseline in Overall Score on Lee cGvHD Symptom Scale, Mean (Standard Deviation): −2.9 (10.9) score on a scale
Cohort 3: 400 mg QD, Cycle 9, Day 1
  Change From Baseline in Overall Score on Lee cGvHD Symptom Scale, Mean (Standard Deviation): −3.6 (10.2) score on a scale
Cohort 3: 400 mg QD, Cycle 10, Day 1
  Change From Baseline in Overall Score on Lee cGvHD Symptom Scale, Mean (Standard Deviation): −3.7 (9.9) score on a scale
Cohort 3: 400 mg QD, Cycle 11, Day 1
  Change From Baseline in Overall Score on Lee cGvHD Symptom Scale, Mean (Standard Deviation): −4.5 (6.1) score on a scale
Cohort 3: 400 mg QD, Cycle 12, Day 1
  Change From Baseline in Overall Score on Lee cGvHD Symptom Scale, Mean (Standard Deviation): −2.8 (6.0) score on a scale
Cohort 3: 400 mg QD, Cycle 13, Day 1
  Change From Baseline in Overall Score on Lee cGvHD Symptom Scale, Mean (Standard Deviation): −0.6 (7.1) score on a scale
Cohort 3: 400 mg QD, Cycle 14, Day 1
  Change From Baseline in Overall Score on Lee cGvHD Symptom Scale, Mean (Standard Deviation): −1.5 (7.7) score on a scale
Cohort 3: 400 mg QD, Cycle 15, Day 1
  Change From Baseline in Overall Score on Lee cGvHD Symptom Scale, Mean (Standard Deviation): −3.2 (8.2) score on a scale
Cohort 3: 400 mg QD, Cycle 16, Day 1
  Change From Baseline in Overall Score on Lee cGvHD Symptom Scale, Mean (Standard Deviation): 1.9 (7.9) score on a scale
Cohort 3: 400 mg QD, Cycle 27, Day 1
  Change From Baseline in Overall Score on Lee cGvHD Symptom Scale, Mean (Standard Deviation): −6.0 (9.6) score on a scale
Cohort 3: 400 mg QD, Cycle 28, Day 1
  Change From Baseline in Overall Score on Lee cGvHD Symptom Scale, Mean (Standard Deviation): 2.6 (—) score on a scale
Cohort 3: 400 mg QD, Cycle 29, Day 1
  Change From Baseline in Overall Score on Lee cGvHD Symptom Scale, Mean (Standard Deviation): −3.7 (13.0) score on a scale
Cohort 3: 400 mg QD, Cycle 31, Day 1
  Change From Baseline in Overall Score on Lee cGvHD Symptom Scale, Mean (Standard Deviation): −12.9 (—) score on a scale
Cohort 3: 400 mg QD, Cycle 33, Day 1
  Change From Baseline in Overall Score on Lee cGvHD Symptom Scale, Mean (Standard Deviation): −12.9 (—) score on a scale
Cohort 3: 400 mg QD, Cycle 35, Day 1
  Change From Baseline in Overall Score on Lee cGvHD Symptom Scale, Mean (Standard Deviation): −12.9 (—) score on a scale
Cohort 3: 400 mg QD, Cycle 39, Day 1
  Change From Baseline in Overall Score on Lee cGvHD Symptom Scale, Mean (Standard Deviation): −12.9 (—) score on a scale
Cohort 3: 400 mg QD, Cycle 41, Day 1
  Change From Baseline in Overall Score on Lee cGvHD Symptom Scale, Mean (Standard Deviation): −12.9 (—) score on a scale
Cohort 3: 400 mg QD, Cycle 43, Day 1
  Change From Baseline in Overall Score on Lee cGvHD Symptom Scale, Mean (Standard Deviation): −12.9 (—) score on a scale
Cohort 3: 400 mg QD, Cycle 45, Day 1
  Change From Baseline in Overall Score on Lee cGvHD Symptom Scale, Mean (Standard Deviation): −12.3 (—) score on a scale
Cohort 3: 400 mg QD, Cycle 47, Day 1
  Change From Baseline in Overall Score on Lee cGvHD Symptom Scale, Mean (Standard Deviation): −12.9 (—) score on a scale
Cohort 3: 400 mg QD, Cycle 49, Day 1
  Change From Baseline in Overall Score on Lee cGvHD Symptom Scale, Mean (Standard Deviation): −14.3 (—) score on a scale
Cohort 3: 400 mg QD, Cycle 51, Day 1
  Change From Baseline in Overall Score on Lee cGvHD Symptom Scale, Mean (Standard Deviation): −12.9 (—) score on a scale
Cohort 3: 400 mg QD, EOT
  Change From Baseline in Overall Score on Lee cGvHD Symptom Scale, Mean (Standard Deviation): 2.5 (11.9) score on a scale
Example 1
  clinically meaningful LSS improvement on consecutive assessments, nonresponders: 32%
  clinically meaningful LSS improvement on consecutive assessments, responders: 37%
Total, N=54
  LSS improvement, nonresponder, n/N: 7/19
  LSS improvement, responder, n/N: 20/35
  clinically significant LSS improvement, overall, % (95% CI): 50%
